Data from ChEMBL document CHEMBL6177998, “Rational Design of Dual Degraders by Incorporating Molecular Glue Structural Features into PROTAC Degraders” (J Med Chem, 2025).

Tests used:
Format in all cases: cell-based
[1] = target: T1, Protein cereblon/Androgen receptor (Homo sapiens, UniProt P10275+Q96SW2); assay: PROTAC activity at CRBN/AR in human 22Rv1 cells assessed as induction of AR degradation at 0.01 uM incubated for 24 hrs by Western blot analysis relative to control
[2] = target: T1, Protein cereblon/Androgen receptor; assay: PROTAC activity at CRBN/AR in human 22Rv1 cells assessed as induction of AR degradation at 0.1 uM incubated for 24 hrs by Western blot analysis relative to control
[3] = system: Protein cereblon/Androgen receptor (Homo sapiens), P10275+Q96SW2 [UNDEFINED MUTATION]; assay: PROTAC activity at CRBN/Androgen receptor splice variant 7 in human 22Rv1 cells assessed as induction of AR-V7 degradation at 0.01 uM incubated for 24 hrs by Western blot analysis relative to control
Sequence of Protein cereblon/Androgen receptor (Homo sapiens), P10275+Q96SW2 [UNDEFINED MUTATION] (P10275 whole entry, looked up, change not shown, canonical isoform): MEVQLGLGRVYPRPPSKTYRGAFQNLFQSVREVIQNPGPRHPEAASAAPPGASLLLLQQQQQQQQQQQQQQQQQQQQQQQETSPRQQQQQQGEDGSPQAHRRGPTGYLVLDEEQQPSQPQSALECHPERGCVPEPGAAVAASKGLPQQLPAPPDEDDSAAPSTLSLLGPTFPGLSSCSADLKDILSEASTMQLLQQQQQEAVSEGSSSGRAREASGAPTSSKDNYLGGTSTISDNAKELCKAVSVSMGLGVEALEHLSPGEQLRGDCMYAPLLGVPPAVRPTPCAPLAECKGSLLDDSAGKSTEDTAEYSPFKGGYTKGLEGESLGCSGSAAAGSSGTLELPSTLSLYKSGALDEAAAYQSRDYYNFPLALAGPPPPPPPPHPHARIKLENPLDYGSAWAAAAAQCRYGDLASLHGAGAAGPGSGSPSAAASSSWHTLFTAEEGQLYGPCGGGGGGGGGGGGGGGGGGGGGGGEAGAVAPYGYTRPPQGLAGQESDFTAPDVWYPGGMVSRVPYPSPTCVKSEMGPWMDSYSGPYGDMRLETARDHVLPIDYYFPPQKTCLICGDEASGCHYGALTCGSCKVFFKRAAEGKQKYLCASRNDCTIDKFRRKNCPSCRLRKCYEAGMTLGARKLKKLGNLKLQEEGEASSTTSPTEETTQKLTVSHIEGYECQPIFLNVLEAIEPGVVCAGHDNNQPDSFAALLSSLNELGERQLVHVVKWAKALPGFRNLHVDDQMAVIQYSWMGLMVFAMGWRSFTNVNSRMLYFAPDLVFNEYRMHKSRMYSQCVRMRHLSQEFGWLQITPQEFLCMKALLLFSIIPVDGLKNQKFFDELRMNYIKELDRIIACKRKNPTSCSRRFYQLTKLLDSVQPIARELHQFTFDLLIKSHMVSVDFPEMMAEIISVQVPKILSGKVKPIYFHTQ
Sequence of Protein cereblon/Androgen receptor (Homo sapiens), P10275+Q96SW2 [UNDEFINED MUTATION] (Q96SW2 whole entry, looked up, change not shown, canonical isoform): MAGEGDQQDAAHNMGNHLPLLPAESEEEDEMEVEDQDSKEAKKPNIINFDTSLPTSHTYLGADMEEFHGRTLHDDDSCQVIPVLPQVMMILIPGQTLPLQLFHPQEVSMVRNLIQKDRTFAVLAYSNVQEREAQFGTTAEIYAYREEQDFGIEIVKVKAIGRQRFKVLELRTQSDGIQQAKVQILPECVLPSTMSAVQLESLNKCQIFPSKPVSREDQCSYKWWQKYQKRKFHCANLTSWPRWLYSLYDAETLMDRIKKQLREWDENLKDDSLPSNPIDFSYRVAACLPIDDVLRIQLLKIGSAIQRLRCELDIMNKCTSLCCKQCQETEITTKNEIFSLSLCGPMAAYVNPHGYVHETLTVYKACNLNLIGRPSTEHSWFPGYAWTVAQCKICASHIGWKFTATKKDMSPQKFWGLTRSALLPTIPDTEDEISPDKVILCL

[4] = system: Protein cereblon/Androgen receptor (Homo sapiens), P10275+Q96SW2 [UNDEFINED MUTATION]; assay: PROTAC activity at CRBN/Androgen receptor splice variant 7 in human 22Rv1 cells assessed as induction of AR-V7 degradation at 0.1 uM incubated for 24 hrs by Western blot analysis relative to control
[5] = target: T1, Protein cereblon/Androgen receptor; assay: PROTAC activity at CRBN/AR in human VCaP cells assessed as induction of AR degradation at 0.01 uM incubated for 24 hrs by Western blot analysis relative to control
[6] = target: T1, Protein cereblon/Androgen receptor; assay: PROTAC activity at CRBN/AR in human VCaP cells assessed as induction of AR degradation at 0.1 uM incubated for 24 hrs by Western blot analysis relative to control
[7] = system: Protein cereblon/Androgen receptor (Homo sapiens), P10275+Q96SW2 [UNDEFINED MUTATION]; assay: PROTAC activity at CRBN/Androgen receptor splice variant 7 in human VCaP cells assessed as induction of AR-V7 degradation at 0.01 uM incubated for 24 hrs by Western blot analysis relative to control
[8] = system: Protein cereblon/Androgen receptor (Homo sapiens), P10275+Q96SW2 [UNDEFINED MUTATION]; assay: PROTAC activity at CRBN/Androgen receptor splice variant 7 in human VCaP cells assessed as induction of AR-V7 degradation at 0.1 uM incubated for 24 hrs by Western blot analysis relative to control
[9] = target: T2, Protein cereblon/Eukaryotic peptide chain release factor GTP-binding subunit ERF3A (Homo sapiens, UniProt Q96SW2+P15170); assay: Molecular glue activity at CRBN/GSPT1 in human 22Rv1 cells assessed as induction of GSPT1 degradation at 0.01 uM incubated for 24 hrs by Western blot analysis relative to control
T2 sequence (P15170 whole entry, looked up): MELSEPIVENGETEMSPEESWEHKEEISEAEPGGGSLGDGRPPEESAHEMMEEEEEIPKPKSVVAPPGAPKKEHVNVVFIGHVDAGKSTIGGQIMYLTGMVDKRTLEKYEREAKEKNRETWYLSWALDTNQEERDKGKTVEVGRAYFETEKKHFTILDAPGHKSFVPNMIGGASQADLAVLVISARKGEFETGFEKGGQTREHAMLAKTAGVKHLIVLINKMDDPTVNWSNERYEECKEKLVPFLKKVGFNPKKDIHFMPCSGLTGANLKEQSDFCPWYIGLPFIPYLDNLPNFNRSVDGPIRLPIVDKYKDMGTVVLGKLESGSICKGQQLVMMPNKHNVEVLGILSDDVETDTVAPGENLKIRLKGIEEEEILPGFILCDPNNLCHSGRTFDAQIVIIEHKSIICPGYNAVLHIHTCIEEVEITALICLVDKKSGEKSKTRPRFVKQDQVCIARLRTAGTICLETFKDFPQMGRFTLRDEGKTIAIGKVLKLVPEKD
T2 sequence (Q96SW2 whole entry, looked up): as the sequence (Q96SW2 whole entry, looked up, change not shown, canonical isoform) above

[10] = target: T2, Protein cereblon/Eukaryotic peptide chain release factor GTP-binding subunit ERF3A; assay: Molecular glue activity at CRBN/GSPT1 in human 22Rv1 cells assessed as induction of GSPT1 degradation at 0.1 uM incubated for 24 hrs by Western blot analysis relative to control

T1 sequence (P10275 whole entry, looked up): as the sequence (P10275 whole entry, looked up, change not shown, canonical isoform) above
T1 sequence (Q96SW2 whole entry, looked up): as the sequence (Q96SW2 whole entry, looked up, change not shown, canonical isoform) above

| SMILES | Activity [1] [%] | Activity [2] [%] | Activity [3] [%] | Activity [4] [%] | Activity [5] [%] | Activity [6] [%] | Activity [7] [%] | Activity [8] [%] | Activity [9] [%] | Activity [10] [%] |
| --- | --- | --- | --- | --- | --- | --- | --- | --- | --- | --- |
| COc1ccc(C(C)(C)c2cc(Cl)c(OCC3CCN(C(=O)CCCCCNc4cc5c(cc4F)C(=O)N(C4CCC(=O)NC4=O)C5=O)CC3)c(C#N)c2)cc1 (stereo not given) | < 5 | < 5 | < 5 | 25.2 | 25.1 | 17.3 | < 5 | 10 | 74.6 | 88.6 |
| CC(C)(c1ccc(OCC2CCN(S(C)(=O)=O)CC2)cc1)c1cc(Cl)c(OCC2CCN(C(=O)CCCCCNc3ccc4c(c3)C(=O)N(C3CCC(=O)NC3=O)C4=O)CC2)c(C#N)c1 (stereo not given) | 71.5 | 78 | 70.6 | 71.9 | < 5 | 34.5 | < 5 | 40.6 | 95.6 | 96.7 |
| CC1(COc2ccc(C(C)(C)c3cc(Cl)c(OCC4CCN(C(=O)CCCCCNc5ccc6c(c5)C(=O)N(C5CCC(=O)NC5=O)C6=O)CC4)c(C#N)c3)cc2)COC1 (stereo not given) | 66.4 | 80.8 | 68.6 | 75 | 78.7 | 78.1 | 49.5 | 29.8 | 95.3 | 96.1 |
| CC(C)(c1ccc(OCC2COC2)cc1)c1cc(Cl)c(OCC2CCN(C(=O)CCCCCNc3ccc4c(c3)C(=O)N(C3CCC(=O)NC3=O)C4=O)CC2)c(C#N)c1 (stereo not given) | 78.3 | 67.1 | 64.2 | 71 | 82.5 | 81.2 | 34.8 | 27.8 | 96.8 | 96.5 |
| CC(C)(c1ccc(OCC2CN(S(C)(=O)=O)C2)cc1)c1cc(Cl)c(OCC2CCN(C(=O)CCCCCNc3ccc4c(c3)C(=O)N(C3CCC(=O)NC3=O)C4=O)CC2)c(C#N)c1 (stereo not given) | 51.3 | 78.3 | 73.9 | 81.2 | 53.6 | 75.6 | < 5 | 48 | 93.2 | 96.8 |
| CC(C)(c1ccc(OCC2CCOCC2)cc1)c1cc(Cl)c(OCC2CCN(C(=O)CCCCCNc3ccc4c(c3)C(=O)N(C3CCC(=O)NC3=O)C4=O)CC2)c(C#N)c1 (stereo not given) | 48 | 79.3 | 68.5 | 83.9 | < 5 | 63 | < 5 | < 5 | 93.6 | 96.1 |
| COc1ccc(C(C)(C)c2cc(Cl)c(OCC3CCN(C(=O)CCCCCNc4ccc5c(c4)C(=O)N(C4CCC(=O)NC4=O)C5=O)CC3)c(Cl)c2)cc1 (stereo not given) | 39.7 | 72.9 | 11.5 | 57.3 | < 5 | 69.8 | < 5 | 69.1 | 72.9 | 93.3 |
| CC(C)(c1ccc(OCc2cncnc2)cc1)c1cc(Cl)c(OCC2CCN(C(=O)CCCCCNc3ccc4c(c3)C(=O)N(C3CCC(=O)NC3=O)C4=O)CC2)c(C#N)c1 (stereo not given) | 80.3 | 85.7 | 75.2 | 74.7 | 72.4 | 74.7 | 84.2 | 94 | 97.6 | 97.5 |
| CC(C)(c1ccc(OCCCCl)cc1)c1ccc(OCC2CCN(C(=O)CCCCCNc3ccc4c(c3)C(=O)N(C3CCC(=O)NC3=O)C4=O)CC2)cc1 (stereo not given) | 13.9 | 30 | < 5 | 5.1 | < 5 | < 5 | < 5 | 28.6 | 37.3 | 92.8 |
| CC(C)(c1ccc(OCC2CCOC2)cc1)c1cc(Cl)c(OCC2CCN(C(=O)CCCCCNc3ccc4c(c3)C(=O)N(C3CCC(=O)NC3=O)C4=O)CC2)c(C#N)c1 (stereo not given) | 72.5 | 73.5 | 76.8 | 89.1 | 83.9 | 85.1 | 43.6 | 40.1 | 96.6 | 96.1 |
| COc1ccc(C(C)(C)c2ccc(OCC3CCN(C(=O)CCCCCNc4ccc5c(c4)C(=O)N(C4CCC(=O)NC4=O)C5=O)CC3)cc2)cc1 (stereo not given) | 38.5 | 79.5 | 6.7 | 57.4 | 20.7 | 83.9 | 23.3 | 54.5 | 88.3 | 94 |
| CC(C)(c1ccc(OCc2ccccc2)cc1)c1cc(Cl)c(OCC2CCN(C(=O)CCCCCNc3ccc4c(c3)C(=O)N(C3CCC(=O)NC3=O)C4=O)CC2)c(C#N)c1 (stereo not given) | < 5 | 50.1 | < 5 | 58.5 | < 5 | 21.7 | < 5 | 21.1 | 81.5 | 97.3 |
| CC(C)(c1ccc(OCc2ccncn2)cc1)c1cc(Cl)c(OCC2CCN(C(=O)CCCCCNc3ccc4c(c3)C(=O)N(C3CCC(=O)NC3=O)C4=O)CC2)c(C#N)c1 (stereo not given) | 75.1 | 80.5 | 75.5 | 77.7 | 61.3 | 58.8 | 72.3 | 84.5 | 97.5 | 97.2 |
| COc1ccc(C(C)(C)c2cc(Cl)c(OCC3CCN(C(=O)CCCCCNc4ccc(C(=O)N[C@H]5CCC(=O)NC5=O)c(F)c4)CC3)c(C#N)c2)cc1 | 23.9 | < 5 | 14.5 | < 5 | 15.7 | < 5 | < 5 | < 5 | < 5 | < 5 |
